Results taken from patent publication US20250092065A1, “2-(INDAZOL-5-YL)-6-(PIPERIDIN-4-YL)-1,7-NAPHTHYRIDINE DERIVATIVES AND RELATED COMPOUNDS AS MODULATORS FOR SPLICING NUCLEIC ACIDS AND FOR THE TREATMENT OF PROLIFERATIVE DISEASES” (REMIX THERAPEUTICS INC., priority 2022, published 2025).
Where two headings read alike, the source gives them in different places.

Columns and labels:
Format in all cases: cell-based, human
HTT mRNA = experiment: RT-qPCR splicing assay, HTT mRNA canonical (CJ) and alternative (AJ) junction; details: Homo sapiens; for AC50: HTT alternative junction mRNA, read-out: HTT AJ (increase in AJ mRNA, AC50)
Outline: (§1)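 Both isoforms, CJ and AJ, read by qPCR from crude lysates of treated A673 or K562 cells; 24 h, 37 °C, maximum 10 uM. Normalization: housekeeper ΔCt, then DMSO ΔΔCt.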

MYB mRNA = experiment: RT-qPCR splicing assay, MYB mRNA canonical (CJ) and alternative (AJ) junction; details: Homo sapiens; for AC50: MYB alternative junction mRNA, read-out: MYB AJ (increase in AJ mRNA, AC50)
Outline: as §1

SMN2 mRNA = experiment: RT-qPCR splicing assay, SMN2 mRNA; details: Homo sapiens, canonical junction qPCR panel, Table 4; read-out: SMN2 IC50 (decrease in CJ mRNA levels)
Outline: as §1

MYB = experiment: HiBiT protein abundance assay, MYB (K562 HiBiT knock-in); details: HiBiT knock-in K562 cells, 24 hours, top dose 10 μM
Outline: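 Endogenously HiBiT-tagged K562 lines were treated for 24 h at 37 °C with 10-point 3-fold dilutions (top 10 μM final, DMSO ≤0.25%). Lytic LgBiT complementation luminescence was normalized between unmodified K562 (PC) and DMSO-treated tagged cells (NC); IC50 was interpolated at 50% from a four-parameter logistic fit.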

[1] = HTT canonical junction mRNA, RT-qPCR, read-out: HTT CJ (decrease in CJ mRNA levels, IC50)
[2] = canonical junction qPCR panel, Table 4, read-out: HTT IC50 (decrease in CJ mRNA levels)
[3] = MYB canonical junction mRNA, RT-qPCR, read-out: MYB CJ (decrease in CJ mRNA levels, IC50)
[4] = canonical junction qPCR panel, Table 4, read-out: MYB IC50 (decrease in CJ mRNA levels)

Row | Structure (SMILES) | IC50 (HTT mRNA; [1]) [nM] | IC50 (HTT mRNA; [2]) [nM] | IC50 (MYB mRNA; [3]) [nM] | IC50 (MYB mRNA; [4]) [nM] | IC50 (SMN2 mRNA) [nM] | IC50 (MYB) [nM] | AC50 (HTT mRNA; RT-qPCR) [nM] | AC50 (MYB mRNA; RT-qPCR) [nM]
1 | Cn1cc2cc(-c3ccc4nc(N5CC[C@H](NC6CC(F)(F)C6)C5)ccc4n3)c(O)cc2n1 [Compound 384] | 1000 to 10000 | 1000 to 10000 | 100 to 1000 | 100 to 1000 | < 100 | 1000 to 10000 | 1000 to 10000 | 100 to 1000
2 | Cn1cc2cc(-c3ccc4nc(N5CC[C@@H](NC6CC(F)(F)C6)C5)ccc4n3)c(O)cc2n1 [Compound 385] | < 100 | < 100 | 100 to 1000 | 100 to 1000 | < 100 | 100 to 1000 | 100 to 1000 | 100 to 1000
3 | CC(C)NC1CCN(c2ccc3nc(-c4cc5cn(C)nc5c(F)c4O)ccc3n2)C1 (stereo not drawn) [Compound 388, 7-fluoro-5-{6-[3-(isopropylamino)pyrrolidin-1-yl]-1,5-naphthyridin-2-yl}-2-methylindazol-6-ol] | < 100 | < 100 | < 100 | < 100 | < 100 | < 100 | < 100 | < 100
4 | Cc1nc2cc(O)c(-c3ccc4nc(N5CCC(NCC6CC6)C5)ccc4n3)cc2o1 (stereo not drawn) [Compound 389, 6-(6-{3-[(cyclopropylmethyl)amino]pyrrolidin-1-yl}-1,5-naphthyridin-2-yl)-2-methyl-1,3-benzoxazol-5-ol] | < 100 | < 100 | < 100 | < 100 | < 100 | < 100 | 100 to 1000 | < 100
5 | Cc1c(O)c(-c2ncc3nc(C4CCNC4)ccc3n2)cc2cn(C)nc12 (stereo not drawn) [Compound 397, 2,7-dimethyl-5-[6-(pyrrolidin-3-yl)pyrido[3,2-d]pyrimidin-2-yl]indazol-6-ol; trifluoroacetic acid] | 1000 to 10000 | 1000 to 10000 | 100 to 1000 | 100 to 1000 | < 100 | 100 to 1000 | 1000 to 10000 | 100 to 1000
6 | Cc1c(O)c(-c2ncc3nc([C@H]4CCNC4)ccc3n2)cc2cn(C)nc12 [Compound 399] | > 10000 | > 10000 | 1000 to 10000 | 1000 to 10000 | 100 to 1000 | 1000 to 10000 | > 10000 | 1000 to 10000
7 | Cn1cc2cc(-c3ncc4nc(C5CCNCC5)ccc4n3)c(O)c(C#N)c2n1 [Compound 403, 6-hydroxy-2-methyl-5-[6-(piperidin-4-yl)pyrido[3,2-d]pyrimidin-2-yl]indazole-7-carbonitrile; trifluoroacetic acid] | 100 to 1000 | 100 to 1000 | 100 to 1000 | 100 to 1000 | < 100 | < 100 | 100 to 1000 | < 100
8 | Cc1nc2cc(O)c(-c3ccc4nc(N5CCNCC5)ccc4n3)cc2o1 [Compound 408, 2-methyl-6-[6-(piperazin-1-yl)-1,5-naphthyridin-2-yl]-1,3-benzoxazol-5-ol] | 100 to 1000 | 100 to 1000 | 100 to 1000 | 100 to 1000 | < 100 | 100 to 1000 | 1000 to 10000 | 100 to 1000
9 | Cc1nc2cc(O)c(-c3ccc4nc(N5CCN[C@@H](C)C5)ccc4n3)cc2o1 [Compound 409] | 100 to 1000 | 100 to 1000 | 100 to 1000 | 100 to 1000 | < 100 | 100 to 1000 | 100 to 1000 | 100 to 1000
10 | Cc1nc2cc(O)c(-c3ccc4nc(N5CCN6CCCC6C5)ccc4n3)cc2o1 (stereo not drawn) [Compound 410] | 100 to 1000 | 100 to 1000 | 100 to 1000 | 100 to 1000 | < 100 | 100 to 1000 | 100 to 1000 | 100 to 1000
11 | Cc1nc2cc(O)c(-c3ccc4nc(N5CCNC6(CC6)C5)ccc4n3)cc2o1 [Compound 411] | 1000 to 10000 | 1000 to 10000 | 100 to 1000 | 100 to 1000 | < 100 | 100 to 1000 | > 10000 | 100 to 1000
12 | Cc1nc2cc(O)c(-c3ccc4nc(N5CCC(NC(C)(C)C)CC5)ccc4n3)cc2o1 [Compound 412] | 100 to 1000 | 100 to 1000 | 100 to 1000 | 100 to 1000 | 100 to 1000 | 100 to 1000 | 100 to 1000 | 100 to 1000

More lines, main results first:

Row | IC50 (HTT mRNA; [1]) [nM] | IC50 (HTT mRNA; [2]) [nM] | IC50 (MYB mRNA; [3]) [nM] | IC50 (MYB mRNA; [4]) [nM] | IC50 (SMN2 mRNA) [nM] | IC50 (MYB) [nM] | Structure (SMILES) | AC50 (HTT mRNA; RT-qPCR) [nM] | AC50 (MYB mRNA; RT-qPCR) [nM]
13 | < 100 | < 100 | < 100 | < 100 | < 100 | < 100 | Cc1nc2c(F)c(O)c(-c3ccc4nc(N5CC[C@H](N[C@H]6C[C@@H](F)C6)C5)ccc4n3)cc2o1 [Compound 374, 4-fluoro-2-methyl-6-[6-(3-{[(1r,3r)-3-fluorocyclobutyl]amino}pyrrolidin-1-yl)-1,5-naphthyridin-2-yl]-1,3-benzoxazol-5-ol] | < 100 | < 100
14 | 100 to 1000 | 100 to 1000 | < 100 | < 100 | < 100 | < 100 | CNC1CCN(c2ccc3nc(-c4cc(C#N)c5nc(C)cn5c4)ncc3n2)C1 (stereo not drawn) [Compound 382, 2-methyl-6-{6-[3-(methylamino)pyrrolidin-1-yl]pyrido[3,2-d]pyrimidin-2-yl}imidazo[1,2-a]pyridine-8-carbonitrile] | 100 to 1000 | < 100
15 | < 100 | < 100 | < 100 | < 100 | < 100 | < 100 | Cn1cc2cc(-c3ccc4nc(N5CCC(NCC6CC6)C5)ccc4n3)c(O)c(F)c2n1 (stereo not drawn) [Compound 387, 5-(6-{3-[(cyclopropylmethyl)amino]pyrrolidin-1-yl}-1,5-naphthyridin-2-yl)-7-fluoro-2-methylindazol-6-ol] | < 100 | < 100
16 | < 100 | < 100 | < 100 | < 100 | < 100 | < 100 | Cc1nc2c(C)c(O)c(-c3ccc4nc(N5CCC(NCC6CC6)C5)ccc4n3)cc2o1 (stereo not drawn) [Compound 390, 6-(6-{3-[(cyclopropylmethyl)amino]pyrrolidin-1-yl}-1,5-naphthyridin-2-yl)-2,4-dimethyl-1,3-benzoxazol-5-ol] | < 100 | < 100
17 | 100 to 1000 | 100 to 1000 | < 100 | < 100 | < 100 | < 100 | CNC1CCN(c2ccc3nc(-c4cc(F)c5nc(C)cn5c4)ncc3n2)C1 (stereo not drawn) [Compound 393, 1-(2-{8-fluoro-2-methylimidazo[1,2-a]pyridin-6-yl}pyrido[3,2-d]pyrimidin-6-yl)-N-methylpyrrolidin-3-amine] | 100 to 1000 | < 100
18 | < 100 | < 100 | 100 to 1000 | 100 to 1000 | < 100 | 100 to 1000 | Cn1cc2cc(-c3ccc4nc(N5CCC(NC(C)(C)C)C5)ncc4n3)c(O)cc2n1 (stereo not drawn) [Compound 404, 5-{2-[3-(tert-butylamino)pyrrolidin-1-yl]pyrido[3,2-d]pyrimidin-6-yl}-2-methylindazol-6-ol] | < 100 | 100 to 1000
19 | 1000 to 10000 | 1000 to 10000 | 1000 to 10000 | 1000 to 10000 | 1000 to 10000 | 1000 to 10000 | COc1cc(-c2ccc3nc(N4CCC(NC(C)(C)C)C4)ncc3n2)cnn1 (stereo not drawn) [Compound 405, N-tert-butyl-1-[6-(6-methoxypyridazin-4-yl)pyrido[3,2-d]pyrimidin-2-yl]pyrrolidin-3-amine] | 1000 to 10000 | 1000 to 10000
20 | 100 to 1000 | 100 to 1000 | 1000 to 10000 | 1000 to 10000 | 100 to 1000 | 100 to 1000 | CN[C@H]1CCN(c2ccc3nc(-c4cc(C#N)c5nc(C)cn5c4)ncc3n2)C1 [Compound 406, 2-methyl-6-{6-[(3S)-3-(methylamino)pyrrolidin-1-yl]pyrido[3,2-d]pyrimidin-2-yl}imidazo[1,2-a]pyridine-8-carbonitrile] | 1000 to 10000 | 100 to 1000
21 | 100 to 1000 | 100 to 1000 | 100 to 1000 | 100 to 1000 | < 100 | 100 to 1000 | CN[C@@H]1CCN(c2ccc3nc(-c4cc(C#N)c5nc(C)cn5c4)ncc3n2)C1 [Compound 407, 2-methyl-6-{6-[(3R)-3-(methylamino)pyrrolidin-1-yl]pyrido[3,2-d]pyrimidin-2-yl}imidazo[1,2-a]pyridine-8-carbonitrile] | 1000 to 10000 | 100 to 1000
